Data from patent US8431591B2, “R(−)-2-methoxy-11-hydroxyaporphine and derivatives thereof” (The McLean Hospital Corporation, priority 2007, dated 2013).
Like-named read-outs stand apart in the source and are kept apart here.

Key:
D2 receptor = conditions: Gao et al., J. Med. Chem. 33:1800 (1990); cited from earlier work
dopamine D1 receptor = dopamine D1 receptor (Rattus norvegicus, UniProt P18901); test: Radioligand competition assay, affinity at rat D1 receptors ([3H]SCH23390); format: binding; conditions: radioligand [3H]SCH23390
dopamine D2 receptor = dopamine D2 receptor (Rattus norvegicus, UniProt P61169); test: Radioligand competition assay, affinity at rat D2 receptors ([3H]nemonapride); format: binding
[1] = following a single dose; cited from earlier work

Sequence of dopamine D2 receptor (P61169 whole entry): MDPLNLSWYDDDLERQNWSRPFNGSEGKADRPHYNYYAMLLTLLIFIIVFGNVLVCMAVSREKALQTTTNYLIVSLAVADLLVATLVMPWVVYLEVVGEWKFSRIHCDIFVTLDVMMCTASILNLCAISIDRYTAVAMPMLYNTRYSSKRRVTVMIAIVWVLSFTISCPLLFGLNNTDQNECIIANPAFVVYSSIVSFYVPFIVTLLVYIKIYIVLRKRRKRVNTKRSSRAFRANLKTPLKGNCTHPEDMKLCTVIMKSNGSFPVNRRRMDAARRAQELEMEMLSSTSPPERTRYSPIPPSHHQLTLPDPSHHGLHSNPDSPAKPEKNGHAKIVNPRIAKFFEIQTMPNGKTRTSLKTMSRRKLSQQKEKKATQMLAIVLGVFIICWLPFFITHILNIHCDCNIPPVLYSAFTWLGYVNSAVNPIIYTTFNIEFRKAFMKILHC
Sequence of dopamine D1 receptor (P18901 whole entry): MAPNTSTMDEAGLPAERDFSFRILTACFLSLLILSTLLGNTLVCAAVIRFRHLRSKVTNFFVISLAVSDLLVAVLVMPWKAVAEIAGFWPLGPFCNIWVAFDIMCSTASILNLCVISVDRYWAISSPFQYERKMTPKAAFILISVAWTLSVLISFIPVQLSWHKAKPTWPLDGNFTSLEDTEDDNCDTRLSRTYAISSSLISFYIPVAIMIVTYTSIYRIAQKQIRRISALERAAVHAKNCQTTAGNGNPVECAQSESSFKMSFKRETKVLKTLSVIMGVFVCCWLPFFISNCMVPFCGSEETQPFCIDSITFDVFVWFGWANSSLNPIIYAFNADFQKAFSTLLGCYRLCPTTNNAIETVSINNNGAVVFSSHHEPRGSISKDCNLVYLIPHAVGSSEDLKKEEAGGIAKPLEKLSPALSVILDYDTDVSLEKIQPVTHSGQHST

Row | SMILES | D2 receptor affinity and selectivity (in words) (D2 receptor) | Ki (dopamine D1 receptor) | also measured
1 | CCCN1CCc2cc(OC)cc3c2[C@H]1Cc1ccc(O)c(O)c1-3 [Compound 1c, R(−)-2-methoxy-N-n-propylnorapomorphine] | among the most potent and highly selective agonists for the D2 receptor |  | 
2 | CCCN1CCc2cccc3c2[C@H]1Cc1cccc(O)c1-3 [Compound 2, R(−)-11-hydroxy-N-n-propylnoraporphine] | even higher affinity and selectivity for D2 receptor than apomorphine |  | 
3 | COc1cc2c3c(c1)-c1c(O)cccc1CC3N(C)CC2 (stereo not drawn) [Compound 3, 2-Methoxy-11-hydroxyaporphine] |  | 46 ± 2.8 nM | Ki (dopamine D2 receptor; rat receptors, radioligand [3H]nemonapride, read-out: Affinity at rat receptors, D2): 235 ± 32 nM
4 | COc1cc2c3c(c1)-c1c(ccc(O)c1O)C[C@H]3N(C)CC2 [Compound 8] |  | 6450 nM | Ki (dopamine D2 receptor): 1.3 ± 0.4 nM
5 | CCCN1CCc2cc(O)cc3c2[C@H]1Cc1ccc(O)c(O)c1-3 [R(−)-2-OH-NPA, R(−)-2-hydroxy-N-n-propylnorapomorphine] | among the most potent and highly selective agonists for the D2 receptor |  | 
6 | CN1CCc2cccc3c2[C@H]1Cc1ccc(O)c(O)c1-3 [apomorphine, R(−)-Apomorphine] |  |  | duration of effects [1]: 40 to 60 min; onset of action [1]: 5 to 15 min
